Results reported in ChEMBL document CHEMBL2069289, “Phosphodiesterase inhibitors. Part 4: design, synthesis and structure-activity relationships of dual PDE3/4-inhibitory fused bicyclic heteroaromatic-4,4-dimethylpyrazolones” (Bioorg Med Chem Lett, 2012).
Calls of active or inactive are those of the source. The calls are words filed in the database; no cut-off is given here.

Columns and labels:
[1] = target: 3',5'-cyclic-AMP phosphodiesterase 4B (Homo sapiens, UniProt Q07343); assay: Inhibition of core catalytic domain of PDE4B
Sequence of 3',5'-cyclic-AMP phosphodiesterase 4B (Q07343 whole entry, the tested form may be a part): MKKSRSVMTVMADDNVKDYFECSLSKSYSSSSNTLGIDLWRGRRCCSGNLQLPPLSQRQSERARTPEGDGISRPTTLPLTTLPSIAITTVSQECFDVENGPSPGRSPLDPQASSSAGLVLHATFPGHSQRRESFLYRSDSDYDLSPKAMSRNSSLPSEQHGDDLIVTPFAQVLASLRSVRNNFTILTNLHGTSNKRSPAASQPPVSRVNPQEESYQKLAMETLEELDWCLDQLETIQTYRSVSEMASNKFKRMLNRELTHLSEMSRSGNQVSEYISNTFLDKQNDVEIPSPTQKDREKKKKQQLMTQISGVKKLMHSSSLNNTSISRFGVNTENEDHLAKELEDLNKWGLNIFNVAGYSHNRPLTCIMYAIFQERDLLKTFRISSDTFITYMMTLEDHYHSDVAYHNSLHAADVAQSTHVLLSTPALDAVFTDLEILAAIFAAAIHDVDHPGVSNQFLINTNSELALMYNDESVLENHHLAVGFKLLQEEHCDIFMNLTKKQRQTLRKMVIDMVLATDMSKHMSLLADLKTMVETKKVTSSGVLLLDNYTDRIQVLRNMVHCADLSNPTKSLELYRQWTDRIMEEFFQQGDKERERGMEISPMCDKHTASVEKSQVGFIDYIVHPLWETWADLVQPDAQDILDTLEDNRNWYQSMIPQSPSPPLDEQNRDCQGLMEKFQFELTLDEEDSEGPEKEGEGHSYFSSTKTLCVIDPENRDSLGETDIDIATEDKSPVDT

[2] = target: cGMP-inhibited 3',5'-cyclic phosphodiesterase 3A (Homo sapiens, UniProt Q14432); assay: Inhibition of core catalytic domain of PDE3A
Sequence of cGMP-inhibited 3',5'-cyclic phosphodiesterase 3A (Q14432 whole entry, the tested form may be a part): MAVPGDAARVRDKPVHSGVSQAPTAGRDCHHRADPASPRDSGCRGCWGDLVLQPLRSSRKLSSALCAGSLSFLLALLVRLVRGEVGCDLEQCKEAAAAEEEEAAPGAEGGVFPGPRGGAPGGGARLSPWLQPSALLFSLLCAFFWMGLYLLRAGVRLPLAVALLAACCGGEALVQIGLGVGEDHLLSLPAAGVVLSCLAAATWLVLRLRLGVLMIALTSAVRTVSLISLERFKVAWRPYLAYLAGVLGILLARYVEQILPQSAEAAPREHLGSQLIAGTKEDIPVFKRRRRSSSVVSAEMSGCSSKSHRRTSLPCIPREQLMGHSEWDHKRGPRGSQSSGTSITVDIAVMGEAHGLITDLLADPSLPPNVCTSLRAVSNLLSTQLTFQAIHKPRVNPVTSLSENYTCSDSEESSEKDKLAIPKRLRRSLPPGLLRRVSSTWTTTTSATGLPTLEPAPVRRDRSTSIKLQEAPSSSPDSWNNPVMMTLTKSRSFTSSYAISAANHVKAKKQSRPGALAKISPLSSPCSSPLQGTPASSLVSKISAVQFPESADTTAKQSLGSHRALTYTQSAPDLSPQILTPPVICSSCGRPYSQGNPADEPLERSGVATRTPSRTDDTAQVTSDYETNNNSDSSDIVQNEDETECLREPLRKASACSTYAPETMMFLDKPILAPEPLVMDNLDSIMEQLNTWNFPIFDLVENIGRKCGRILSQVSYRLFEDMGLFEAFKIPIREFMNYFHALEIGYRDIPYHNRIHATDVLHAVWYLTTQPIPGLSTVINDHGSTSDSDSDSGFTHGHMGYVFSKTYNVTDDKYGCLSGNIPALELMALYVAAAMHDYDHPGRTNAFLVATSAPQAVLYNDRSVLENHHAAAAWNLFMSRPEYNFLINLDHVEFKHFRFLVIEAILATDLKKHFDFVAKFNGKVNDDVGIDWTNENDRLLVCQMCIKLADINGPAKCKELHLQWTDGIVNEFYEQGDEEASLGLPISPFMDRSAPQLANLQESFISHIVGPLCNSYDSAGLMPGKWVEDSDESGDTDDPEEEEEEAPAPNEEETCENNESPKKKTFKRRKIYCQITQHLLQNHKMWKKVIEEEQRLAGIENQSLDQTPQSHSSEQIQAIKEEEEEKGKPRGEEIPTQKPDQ

[3] = test system: Cavia porcellus; assay: Bronchodilatory activity in guinea pig assessed as reduction of histamine-induced bronchoconstriction at 0.3 mg/kg, iv relative to control; format: functional; design: scale not given: the % may be the effect or the level left
[4] = test system: Cavia porcellus; assay: Bronchodilatory activity in guinea pig assessed as reduction of histamine-induced bronchoconstriction at 0.1 mg/kg, po relative to control; format: functional
[5] = species on record: Homo sapiens; assay: Selectivity ratio of IC50 for core catalytic domain of PDE4B to IC50 for core catalytic domain of PDE3A

Structure (SMILES) | IC50 [1] | IC50 [2] | Activity [3] | Activity [4] | Ratio IC50 [5]
COc1ccc(C2=NNC(=O)C2(C)C)c2cc(C(F)(F)F)nn12 | 110 nM | 4130 nM |  |  | 
CCc1cc2c(C3=NNC(=O)C3(C)C)ccc(CC)n2n1 | 17 nM | 2000 nM |  |  | 
COc1ccc(C2=NNC(=O)C2(C)C)c2ccc(C(F)(F)F)nc12 | 1070 nM | 6650 nM |  |  | 
COc1ccc(C2=NNC(=O)C2(C)C)c2sc(C(F)(F)F)nc12 | 63 nM | 540 nM | 96% | inactive | 
CCc1cc2c(C3=NNC(=O)C3(C)C)ccc(C(C)O)n2n1 (racemic) | 3.4 nM | 1630 nM |  |  | 
COc1ccc(C2=NNC(=O)CC2C)c2cc(C(F)(F)F)nn12 (single isomer, unassigned; (-)) | 42 nM | 360 nM |  |  | 
COc1ccc(C2=NNC(=O)C2(C)C)c2cc(C3CC3)nn12 | 150 nM | 6170 nM |  |  | 
CCc1cc2c(C3=NNC(=O)C3(C)C)ccc(C)n2n1 | 160 nM | 2370 nM |  |  | 
CCc1cc2c(C3=NNC(=O)CC3C)ccc(OC)n2n1 (racemic) | 470 nM | 11300 nM |  |  | 
COc1ccc(C2=NNC(=O)C2(C)C)n2cc(C(F)(F)F)nc12 | 150 nM | 140 nM | 100% | >70% | 
COc1ccc(C2=NNC(=O)C2(C)C)c2cc(C(F)F)nn12 | 50 nM | 3280 nM |  |  | 
CCc1cc2c(C3=NNC(=O)C3(C)C)ccc(CO)n2n1 | 35 nM | 1590 nM |  |  | 
CCc1cc2c(C3=NNC(=O)C3(C)C)ccc(NC)n2n1 | 15 nM | 75600 nM |  |  | 5000
CCc1ccc2c(C3=NNC(=O)C3(C)C)ccc(OC)c2n1 | 2580 nM | 10100 nM |  |  | 
CCc1cc2c(C3=NNC(=O)C3(C)C)ccc(C(C)=O)n2n1 | 7.5 nM | 2500 nM |  |  | 
COc1ccc(C2=NNC(=O)C2(C)C)c2ccnn12 | 2930 nM | 10800 nM |  |  | 
COc1ccc(C2=NNC(=O)C2(C)C)c2cc(C(F)(F)F)sc12 | 690 nM | 5360 nM |  |  | 
CCc1cc2c(C3=NNC(=O)C3(C)C)ccc(SC)n2n1 | 79 nM | 9010 nM |  |  | 
COc1ccc(C2=NNC(=O)C2(C)C)c2[nH]c(C(F)(F)F)nc12 | 200 nM | 14100 nM |  |  | 
CCc1cc2c(C3=NNC(=O)C3(C)C)ccc(OC)n2n1 | 410 nM | 9210 nM |  |  | 
COc1ccc(C2=NNC(=O)C2(C)C)c2cc(C(F)(F)F)oc12 | 360 nM | 1100 nM |  |  | 
